Patent US20250205384A1, “HEMOSTATIC MATERIAL” (Toray Industries, Inc., priority 2018, published 2025)

Tests used:
guinea pig-derived PRP = test: Evaluation of platelet aggregation capacity of hemostatic material (in vitro), protein assay of attached platelets; format: cell-based; conditions: lipid supported on base part in place of DHSG lipids
Description: From the hemostatic materials D1, D2, D3 and D4, a base part (fiber sheet part) supporting DHSG, Asp-DHSG, Glu-DHSG and AG-DHSG, respectively, was taken out. To a 12-well plate, the base part (fiber sheet part) that was taken out and 1 mL of guinea pig-derived PRP (2.0×10^5/μL) prepared by the abovementioned method were added. Thereafter, ADP (1 μM, 100 μL) that activates platelets was added, and after allowing to stand at room temperature for 5 minutes, the mixture was washed with 1 mL of DPBS twice. Thereafter, to dissolve platelets attached to the base part (fiber sheet part), 500 μL of 0.5% Triton X was added, followed by allowing to stand at room temperature for 1 hour to obtain a platelet lysate. To a 96-well plate, 10 μL of the platelet lysate prepared by the abovementioned method and 150 μL of Pierce (trademark) 660 nm Protein Assay Kit were added, followed by allowing to stand for 5 minutes. By measuring absorbance at 660 nm using a microplate reader, proteins were quantitatively determined, and the determination results were used as an index of the count of platelets which were not washed away and were attached to the fiber sheet. The results in FIG. 8 are relative values when the platelet count in using the hemostatic material D1 is regarded as 1. […]

[1] = Thickness of lipid membrane from SEM observation image; format: physicochemical; conditions: lipid on PLLA fiber sheet, SEM ×5,000 (FIGS. 17 to 20)
Description: The thickness of the lipid membrane is preferably 10 to 1,000 nm, more preferably 30 to 500 nm, and still more preferably 60 to 240 nm. The method of measuring the lipid membrane is as follows. The lipid membrane is observed with a scanning electron microscope (SEM). The thickness of five points optionally selected in the SEM observation image is measured, and the mean is regarded as the thickness of the lipid membrane.
An SEM observation image (×1,000) of the base complex before supporting a lipid is shown in FIG. 9, and SEM observation images (×1,000) of the hemostatic materials E2 to E8 are shown in FIGS. 10 to 16, respectively.

[2] = Solubility in t-butyl alcohol; conditions: in words

| Compound | thickness of the lipid membrane [1] [nm] | other results |
| --- | --- | --- |
| CCCCCCCCCCCCCCCC(=O)OC[C@H](COP(=O)([O-])OCC[N+](C)(C)C)OC(=O)CCCCCCCCCCCCCCC [DPPC, 1,2-dipalmitoyl-sn-glycero-3-phosphatidylcholine] | – | platelets detected on the base part (fiber sheet part) after washing (guinea pig-derived PRP): no platelets were detected |
| CCCCCCCCCCCCCCCCOC(=O)CCC(NC(=O)CCC(=O)NC(CCC(=O)NC(CC(=O)O)C(=O)O)C(=O)NC(CC(=O)O)C(=O)O)C(=O)OCCCCCCCCCCCCCCCC (stereo not drawn) [AG-DHSG] | 124 | – |
| CCCCCCCCCCCCCCCC(=O)OCC(COP(=O)(O)O)OC(=O)CCCCCCCCCCCCCCC (stereo not drawn) [Anionic DPPA] | – | solubility in t-butyl alcohol compared with the DPPA sodium salt [2]: higher solubility in t-butyl alcohol |
| CCCCCCCCCCCCCCCCOC(=O)CCC(NC(=O)CCC(=O)NC(CC(=O)O)C(=O)O)C(=O)OCCCCCCCCCCCCCCCC (stereo not drawn) [Asp-DHSG] | 153 | – |

More lines, main results first:

| thickness of the lipid membrane [1] [nm] | Compound | other results |
| --- | --- | --- |
| 131 | CCCCCCCCCCCCCCCCOC(=O)CCC(NC(=O)CCC(=O)O)C(=O)OCCCCCCCCCCCCCCCC [DHSG, 1,5-Dihexadecyl-N-Succinyl-L-Glutamate] | – |
| 187 | CCCCCCCCCCCCCCCCOC(=O)CCC(NC(=O)CCC(=O)NC(CCC(=O)O)C(=O)O)C(=O)OCCCCCCCCCCCCCCCC (stereo not drawn) [Glu-DHSG] | – |
